{"source": "patent US20060165654A1", "about": "“Peptides and recombinant proteins mimicking interferons” (priority 2002, published 2006)", "key": {"[1]": {"tested_on": "virus of mouse encephalomiocarditis", "assay": "antiviral activity: suppression of cytopathic action of test-virus in L-41 and VERO cell cultures", "assay_type": "cell-based", "details": "L-41 and VERO cells", "protocol": "FIG. 7 Antiviral properties of de novo proteins and interferons in cell cultures L41 (human mononuclear leucosis) and VERO (kidney of green simian). The activity of preparations was determined as a minimal concentration leading to a 50% delay of the virus of mouse encephalomiocarditis cytopathic action. The average values of three independent experiments are shown ± the standard deviations.\nFIG. 8 Antiviral properties of de novo proteins in the cell cultures L-41 (human mononuclear leucosis) and VERO (kidney of green simian). […] The average values of three independent experiments are shown ± standard deviations.\nThe average values of three independent experiments are shown ± standard deviations.\n(§1) Antiviral and cytotoxity properties of obtained proteins. Testing of antiviral activity of the proteins was carried out in vitro monitoring the ability of the preparation to suppress cytopathic action of the test-virus (Ershov F., 1996, Interferon system: norm and pathology, Moscow, Medicine). Two cell lines were used in experiments: cells of human mononuclear leucosis L41 and green simian kidney VERO.\nas §1, with “Antiviral” for “Antiviral and cytotoxity”, “synthetic linear peptides.” for “obtained proteins.”, “synthetic linear peptides” for “proteins”, “L-41” for “L41”"}, "[2]": {"tested_on": "human T-lymphoblastoid cell line MT4", "details": "cited from earlier work"}}, "note": "“Also recorded” adds a separate entry of the source."}
{"substance": "LKEKKYSP (human interferon alfa2) [reference compound]", "values": [{"measurement": "antiviral activity (in words)", "setting": "[1]", "value": "demonstration of antiviral activity"}, {"measurement": "concentrations suppressing proliferation of MT4", "setting": "[2]", "value": "10^−9-10^−8 M"}]}
{"substance": "LKEKKYSP-Ser-Ser-LKDRHDF (LKEKKYSPSSLKDRHDF; human interferon alfa2)", "values": [{"measurement": "antiviral activity (in words)", "setting": "[1]", "value": "demonstration of antiviral activity"}, {"measurement": "antiviral activity compared with human interferon-α2", "setting": "[1]; minimal concentration giving 50% delay of cytopathic action", "value": "only one order of magnitude less; also recorded: practically completely reproduces antiviral properties of human interferon-α2"}]}
{"substance": "LKDRHDF (human interferon alfa2)", "values": [{"measurement": "antiviral activity (in words)", "setting": "[1]", "value": "demonstration of antiviral activity"}]}
